target: T1, human GnRH receptor (Homo sapiens, UniProt P30968); assay: Radioligand binding, 125I-GnRH-A displacement, membranes of HEK 293 cells with human GnRH receptor; conditions: 1 h, read-out: S%R 10 uM hGnRHR
T1 construct: expressed in transfected cells; host or cells: HEK 293 (hGnRH-R/293, from Dr. Stuart Sealfon)
T1 sequence (P30968 1-328): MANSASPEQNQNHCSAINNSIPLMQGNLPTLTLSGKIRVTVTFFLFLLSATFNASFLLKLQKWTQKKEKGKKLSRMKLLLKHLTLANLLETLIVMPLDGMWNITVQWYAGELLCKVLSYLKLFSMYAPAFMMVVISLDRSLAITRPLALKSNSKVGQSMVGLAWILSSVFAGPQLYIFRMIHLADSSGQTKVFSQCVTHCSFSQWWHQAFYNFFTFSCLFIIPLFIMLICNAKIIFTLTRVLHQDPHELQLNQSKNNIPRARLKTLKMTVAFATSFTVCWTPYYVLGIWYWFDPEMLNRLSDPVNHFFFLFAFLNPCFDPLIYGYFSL
In short: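 Bound tracer was separated by filtration through polyethyleneimine-soaked GF/C filters and counted by liquid scintillation. IC50 from curve fitting; other species were tested under the same conditions.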

`COc1cccc(OC)c1NC(=O)c1ccc(Cc2cc3c(cc2C)C(C)(C)CCC3(C)C)o1` [Compound 389] showed a remaining activity at 10 µM of 3%.

same assay, conditions: 1 h, substrate remaining; 10 uM compound; closer to zero = closer to 100% inhibition; read-out: S%R 10 uM hGnRHR

Compared with `Cc1cc2c(cc1Cc1ccc(C(=O)Nc3nc[nH]n3)o1)C(C)(C)CCC2(C)C` [Compound 324], `Cc1cc2c(cc1Cc1ccc(C(=O)Nc3nccs3)o1)C(C)(C)CCC2(C)C` [Compound 334] is higher in remaining activity at 10 µM: 27% for the first, 34% for the second.

First: COc1ccc(NC(=O)c2ccc(Cc3cc4c(cc3C)C(C)(C)CCC4(C)C)o2)cn1 [Compound 325]
Second: COc1cccc(NC(=O)c2ccc(Cc3cc4c(cc3C)C(C)(C)CCC4(C)C)o2)c1 [Compound 337]
The remaining activity at 10 µM of the first is lower: 3% for the first, 6% for the second.

Going from `Cc1ccc(-n2nc(C)cc2NC(=O)c2ccc(Cc3cc4c(cc3C)C(C)(C)CCC4(C)C)o2)cc1` [Compound 326] to `Cc1cc(NC(=O)c2ccc(Cc3cc4c(cc3C)C(C)(C)CCC4(C)C)o2)n(-c2ccccc2)n1` [Compound 328], the remaining activity at 10 µM falls from 51% to 33%.

Going from `Cc1cc2c(cc1Cc1ccc(C(=O)Nc3ccccc3CCO)o1)C(C)(C)CCC2(C)C` [Compound 327] to `Cc1cc2c(cc1Cc1ccc(C(=O)Nc3ccccc3CO)o1)C(C)(C)CCC2(C)C` [Compound 333], the remaining activity at 10 µM rises from 0% to 28%.

Going from `CC1=CC(NC(=O)c2ccc(Cc3cc4c(cc3C)C(C)(C)CCC4(C)C)o2)=NC1c1ccccc1` (centres unmarked) [Compound 329] to `Cc1cc2c(cc1Cc1ccc(C(=O)Nc3ccccc3)o1)C(C)(C)CCC2(C)C` [Compound 384], the remaining activity at 10 µM falls from 31% to 21%.

Going from `COc1ccc(OC)c(NC(=O)c2ccc(Cc3cc4c(cc3C)C(C)(C)CCC4(C)C)o2)c1` [Compound 330] to `COc1ccc(NC(=O)c2ccc(Cc3cc4c(cc3C)C(C)(C)CCC4(C)C)o2)c(OC)c1` [Compound 332], the remaining activity at 10 µM falls from 10% to 1%.

First: Cc1cnc(NC(=O)c2ccc(Cc3cc4c(cc3C)C(C)(C)CCC4(C)C)o2)s1 [Compound 331]
Second: Cc1cc2c(cc1Cc1ccc(C(=O)Nc3ncccc3C)o1)C(C)(C)CCC2(C)C [Compound 379]
The remaining activity at 10 µM of the first is higher: 49% for the first, 4% for the second.

First: Cc1cc2c(cc1Cc1ccc(C(=O)Nc3ccc(N(C)C)cc3)o1)C(C)(C)CCC2(C)C [Compound 335]
Second: Cc1cc2c(cc1Cc1ccc(C(=O)Nc3ccc(O)cc3)o1)C(C)(C)CCC2(C)C [Compound 340]
The remaining activity at 10 µM of the first is lower: 2% for the first, 28% for the second.

First: Cc1cc2c(cc1Cc1ccc(C(=O)Nc3nnc(C4CC4)s3)o1)C(C)(C)CCC2(C)C [Compound 336]
Second: Cc1cc2c(cc1Cc1ccc(C(=O)Nc3ncccc3O)o1)C(C)(C)CCC2(C)C [Compound 369]
The remaining activity at 10 µM of the first is higher: 57% for the first, 11% for the second.

First: CCOc1ccc(NC(=O)c2ccc(Cc3cc4c(cc3C)C(C)(C)CCC4(C)C)o2)cc1 [Compound 338]
Second: Cc1cc2c(cc1Cc1ccc(C(=O)Nc3ccc(CO)cc3)o1)C(C)(C)CCC2(C)C [Compound 339]
The remaining activity at 10 µM of the first is higher: 26% for the first, 17% for the second.

Compared with `Cc1cc2c(cc1Cc1ccc(C(=O)Nc3ccc(O)c4ncccc34)o1)C(C)(C)CCC2(C)C` [Compound 341], `Cc1cc2c(cc1Cc1ccc(C(=O)Nc3cccc4ncccc34)o1)C(C)(C)CCC2(C)C` [Compound 346] is lower in remaining activity at 10 µM: 20% for the first, -14% for the second.

First: Cc1cc2c(cc1Cc1ccc(C(=O)Nc3ccccc3O)o1)C(C)(C)CCC2(C)C [Compound 342]
Second: Cc1cc2c(cc1Cc1ccc(C(=O)Nc3ccccc3C)o1)C(C)(C)CCC2(C)C [Compound 362]
The remaining activity at 10 µM of the first is higher: 45% for the first, 1% for the second.

First: COc1cc(C#N)c(NC(=O)c2ccc(Cc3cc4c(cc3C)C(C)(C)CCC4(C)C)o2)cc1OC [Compound 343]
Second: COC(=O)c1ccc(OC)c(NC(=O)c2ccc(Cc3cc4c(cc3C)C(C)(C)CCC4(C)C)o2)c1 [Compound 361]
The remaining activity at 10 µM of the first is higher: 33% for the first, 4% for the second.

Compared with `Cc1cc2c(cc1Cc1ccc(C(=O)Nc3ccccc3C(=O)NCC(C)(C)CN(C)C)o1)C(C)(C)CCC2(C)C` [Compound 344], `Cc1cc2c(cc1Cc1ccc(C(=O)Nc3ccccc3C(=O)NCc3cccnc3)o1)C(C)(C)CCC2(C)C` [Compound 352] is lower in remaining activity at 10 µM: 57% for the first, 51% for the second.

First: Cc1cc2c(cc1Cc1ccc(C(=O)Nc3cccc(O)c3)o1)C(C)(C)CCC2(C)C [Compound 345]
Second: Cc1cccc(NC(=O)c2ccc(Cc3cc4c(cc3C)C(C)(C)CCC4(C)C)o2)c1 [Compound 364]
The remaining activity at 10 µM of the first is higher: 40% for the first, 21% for the second.

Compared with `Cc1cc2c(cc1Cc1ccc(C(=O)Nc3ccc(CC#N)cc3)o1)C(C)(C)CCC2(C)C` [Compound 347], `CSc1ccc(NC(=O)c2ccc(Cc3cc4c(cc3C)C(C)(C)CCC4(C)C)o2)cc1` [Compound 366] is higher in remaining activity at 10 µM: 2% for the first, 37% for the second.

First: Cc1cc2c(cc1Cc1ccc(C(=O)Nc3ccccc3C(=O)N3CCN(C)CC3)o1)C(C)(C)CCC2(C)C [Compound 348]
Second: CNc1ccccc1NC(=O)c1ccc(Cc2cc3c(cc2C)C(C)(C)CCC3(C)C)o1 [Compound 350]
The remaining activity at 10 µM of the first is higher: 49% for the first, 10% for the second.

Going from `Cc1cc2c(cc1Cc1ccc(C(=O)Nc3ccccc3C(=O)NC3CC45CCN4CCC35)o1)C(C)(C)CCC2(C)C` (centres unmarked) [Compound 349] to `Cc1cc2c(cc1Cc1ccc(C(=O)Nc3ccccc3C(=O)NCCCN3CCCC3=O)o1)C(C)(C)CCC2(C)C` [Compound 368], the remaining activity at 10 µM rises from 47% to 56%.

First: Cc1cc2c(cc1Cc1ccc(C(=O)Nc3cccc(C#N)c3)o1)C(C)(C)CCC2(C)C [Compound 351]
Second: Cc1cc2c(cc1Cc1ccc(C(=O)Nc3cccc([N+](=O)[O-])c3)o1)C(C)(C)CCC2(C)C [Compound 370]
The remaining activity at 10 µM of the first is lower: 24% for the first, 37% for the second.

Going from `Cc1cc2c(cc1Cc1ccc(C(=O)Nc3nc(Cl)c4nc[nH]c4n3)o1)C(C)(C)CCC2(C)C` [Compound 353] to `Cc1cc2c(cc1Cc1ccc(C(=O)Nc3ccc(O)c(Cl)c3)o1)C(C)(C)CCC2(C)C` [Compound 380], the remaining activity at 10 µM rises from -4% to 29%.

Compared with `Cc1cc2c(cc1Cc1ccc(C(=O)Nc3ccc4[nH]c(O)nc4c3)o1)C(C)(C)CCC2(C)C` [Compound 355], `Cc1cc2c(cc1Cc1ccc(C(=O)Nc3ccc4[nH]ncc4c3)o1)C(C)(C)CCC2(C)C` [Compound 383] is lower in remaining activity at 10 µM: 20% for the first, 7% for the second.

Compared with `Cc1cc2c(cc1Cc1ccc(C(=O)Nc3nccc4ccccc34)o1)C(C)(C)CCC2(C)C` [Compound 356], `Cc1cc2c(cc1Cc1ccc(C(=O)Nc3ccc(Br)c4ccccc34)o1)C(C)(C)CCC2(C)C` [Compound 388] is higher in remaining activity at 10 µM: 17% for the first, 30% for the second.

Compared with `COc1ccccc1NC(=O)c1ccc(Cc2cc3c(cc2C)C(C)(C)CCC3(C)C)o1` [Compound 358], `CSc1ccccc1NC(=O)c1ccc(Cc2cc3c(cc2C)C(C)(C)CCC3(C)C)o1` [Compound 363] is higher in remaining activity at 10 µM: 9% for the first, 14% for the second.

Going from `Cc1cc2c(cc1Cc1ccc(C(=O)Nc3cccc(OC(F)(F)F)c3)o1)C(C)(C)CCC2(C)C` [Compound 359] to `COc1ccc(NC(=O)c2ccc(Cc3cc4c(cc3C)C(C)(C)CCC4(C)C)o2)cc1F` [Compound 381], the remaining activity at 10 µM falls from 55% to 34%.

Going from `Cc1nc2cc(NC(=O)c3ccc(Cc4cc5c(cc4C)C(C)(C)CCC5(C)C)o3)ccc2s1` [Compound 360] to `Cc1cc2c(cc1Cc1ccc(C(=O)Nc3ccc4cn[nH]c4c3)o1)C(C)(C)CCC2(C)C` [Compound 365], the remaining activity at 10 µM rises from 4% to 47%.

Compared with `Cc1cc2c(cc1Cc1ccc(C(=O)Nc3ccc4c(c3)OCO4)o1)C(C)(C)CCC2(C)C` [Compound 367], `Cc1cc2c(cc1Cc1ccc(C(=O)Nc3ccc(O)c([N+](=O)[O-])c3)o1)C(C)(C)CCC2(C)C` [Compound 371] is higher in remaining activity at 10 µM: 15% for the first, 55% for the second.

Compared with `Cc1cc2c(cc1Cc1ccc(C(=O)Nc3cc(CO)ccc3C)o1)C(C)(C)CCC2(C)C` [Compound 372], `Cc1cc2c(cc1Cc1ccc(C(=O)Nc3c(C)cccc3O)o1)C(C)(C)CCC2(C)C` [Compound 373] is higher in remaining activity at 10 µM: 1% for the first, 19% for the second.

Going from `COC(=O)c1ccc(NC(=O)c2ccc(Cc3cc4c(cc3C)C(C)(C)CCC4(C)C)o2)cc1OC` [Compound 374] to `COc1cccc(C)c1NC(=O)c1ccc(Cc2cc3c(cc2C)C(C)(C)CCC3(C)C)o1` [Compound 378], the remaining activity at 10 µM falls from 13% to -4%.

First: CCc1ccc(C)nc1NC(=O)c1ccc(Cc2cc3c(cc2C)C(C)(C)CCC3(C)C)o1 [Compound 375]
Second: Cc1cc2c(cc1Cc1ccc(C(=O)Nc3ccc(O)c(C)c3C)o1)C(C)(C)CCC2(C)C [Compound 376]
The remaining activity at 10 µM of the first is lower: 16% for the first, 50% for the second.

Going from `Cc1cc2c(cc1Cc1ccc(C(=O)Nc3ccc4c(=O)[nH][nH]c(=O)c4c3)o1)C(C)(C)CCC2(C)C` [Compound 377] to `Cc1cc2c(cc1Cc1ccc(C(=O)Nc3cccc4c(=O)[nH][nH]c(=O)c34)o1)C(C)(C)CCC2(C)C` [Compound 387], the remaining activity at 10 µM rises from 39% to 52%.

`COC(=O)c1cc(OC)c(OC)c(OO)c1NC(=O)c1ccc(Cc2cc3c(cc2C)C(C)(C)CCC3(C)C)o1` [Compound 386] showed a remaining activity at 10 µM of 27%.

same assay, conditions: substrate remaining; 10 uM compound; closer to zero = closer to 100% inhibition

Compared with `Cc1cc2c(cc1Cc1ccc(C(=O)Nc3ccc4[nH]ccc4c3)o1)C(C)(C)CCC2(C)C` [Compound 354], `Cc1cc2c(cc1Cc1ccc(C(=O)Nc3ccc4c(=O)[nH][nH]c(=O)c4c3)o1)C(C)(C)CCC2(C)C` [Compound 385] is higher in “S%R 10 uM hGnRHR” value: −5% for the first, 41% for the second.

In the case of `Cc1cc2c(cc1Cc1ccc(C(=O)Nc3ccc4[nH]ccc4c3)o1)C(C)(C)CCC2(C)C` [Compound 357], the “S%R 10 uM hGnRHR” value is reported as −2%.
